Assay results taken from article PMC7066245 (Scientific Reports, 2020).
Read-outs that look alike come from different tables or passages of the source.

Key:
[1] = system: HL60 promyelocytic leukemia cells; experiment: cells; format: cell-based, human; conditions: read-out: IC50 HL60
[2] = system: RPMI8226 myeloma cancer cells; experiment: cells; format: cell-based, human; conditions: read-out: IC50 RPMI8226
[3] = system: caspase-3/-7 in THP1 cells; format: cell-based, human
[4] = system: THP1 acute monocytic leukemia cells; experiment: cells; format: cell-based, human; conditions: read-out: IC50 THP1
[5] = system: THP1 cells; format: cell-based, human; parameters: concentration or dose not given beside the values
[6] = system: intracellular calcium (Ca2+) in THP1 cells; experiment: intracellular calcium measurement (Fluo-4-NW), THP1; format: cell-based, human; conditions: THP1, IC50 dose, 4 h
Protocol: (§1) Intracellular calcium level was determined using the fluorescent probe Fluo-4NW according to the protocol described in our previous article. After entering the cell, Fluo-4NW is converted by cytosolic hydrolases to the active form, having the possibility of binding of calcium ions. As a result of joining of calcium ions, the probe emits fluorescence (λem = 538 nm) after excitation with light of wavelength 485 nm.
(§2) Cells were cultured and treated with investigated compounds on Petri dishes. Next, the cells were plated in 96-well black fluorimetric plates (2 × 10^4 cells/well). The growth medium was removed and the cells were washed with PBS in order to eliminate sources of baseline fluorescence. Finally a dye loading solution (Fluo-4-NW dye, 4-[(Dipropylamino)sulfonyl] benzoic acid (Probenecid) - used to inhibit extrusion of the indicator out of the cell by organic anion transporters, Hanks’ balanced salt solution (HBSS), 20 mM N-(2- hydroxyethyl)piperazine-N’-(2-ethanesulfonic acid) buffer solution (HEPES)) was added in a volume of 100 μl per well and incubated for 30 min in the total darkness at 37 °C, and then for next 30 min. at room temperature. The measurement was done on Fluoroskan Ascent FL microplate reader (Labsystems, Sweden) using 494 nm excitation and 516 nm emission wavelengths.

[7] = system: caspase-3/-7 in HL60 cells; format: cell-based, human
[8] = system: THP1 cells; experiment: annexin V/propidium iodide apoptosis assay, THP1; format: cell-based, human; conditions: THP1, 48 h, 0.3 μM, annexin V/PI
Text: (§3) Double staining of cells with Annexin V and propidium iodide (PI) was used according to the protocol described in our previous article. This method is a useful tool for distinguishing viable cells (unstained with either fluorochrome) from early apoptotic cells (stained only with Annexin V), late apoptotic (stained with Annexin V and propidium iodide) and necrotic (dead) cells (stained only with PI).
(§4) Briefly, 5 × 10^5 control and drug treated cells were washed with cold PBS and resuspended in 500 μl binding buffer (delivered from producer) that contained 5 μl of Annexin V fluorescein isothiocyanate (FITC), 5 μl of PI and stained for 15 minutes in room temperature. Finally, at least 10^4 cells were analyzed for FITC and PI fluorescence (Ex ~488 nm; Em ~530 nm) using a flow cytometer (LSR II, Becton Dickinson). The cells stained with the annexin V/propidium iodide mixture were then visualized using fluorescence microscopy (Olympus IX70, Japan), magnification × 200.

[9] = system: RPMI8226 cells; format: cell-based, human
[10] = system: normal peripheral blood-derived mononuclear cells (PBMC); experiment: cells; format: cell-based; conditions: read-out: IC50 PBMC
[11] = system: caspase-3/-7 in RPMI8226 cells; format: cell-based, human
[12] = system: intracellular calcium (Ca2+) in HL60 cells; experiment: intracellular calcium measurement (Fluo-4-NW), HL60; format: cell-based, human; conditions: HL60, IC50 dose
Protocol: as §1, §2

[13] = system: RPMI8226 cells; experiment: annexin V/propidium iodide apoptosis assay, RPMI8226; format: cell-based, human; conditions: RPMI8226, 48 h, 3 µM, annexin V/PI
Text: as §3, §4

[14] = system: caspase-9 in THP1 cells; format: cell-based, human
[15] = system: HL60 cells; experiment: annexin V/propidium iodide apoptosis assay, HL60; format: cell-based, human; conditions: HL60, 48 h, 0.7 μM, annexin V/PI
Text: as §3, §4

## CCOC(=O)C(Cc1ccc(N(CCCl)CCCl)cc1)N=CN1CCOCC1 (centres unmarked) [EE-MOR-MEL]
[1]; Homo sapiens, HL-60, 48 h
  IC50: 0.32 µM
[2]; Homo sapiens, RPMI-8226, 48 h
  IC50: 3.13 µM
[3]
  Caspase 3 activity THP1, 24 h: 981.93 ± 51.79%
[4]; Homo sapiens, THP-1, 48 h
  IC50: 0.04 µM
[5]
  DNA damage (tail DNA), THP1: ~ 13%
[6]
  fold increase of intracellular calcium ions, THP1: approx. 2.8 fold
[7]
  Caspase 3 activity HL-60, 24 h: 1127.68 ± 39.24%

## CCCN(C=NC(Cc1ccc(N(CCCl)CCCl)cc1)C(=O)OC)CCC (centres unmarked) [EM-DIPR-MEL]
[8]
  late apoptotic cells, THP1: comparable to that of the unmodified drug
[1]; Homo sapiens, HL-60, 48 h
  IC50: 0.85 µM
[2]; Homo sapiens, RPMI-8226, 48 h
  IC50: 5.94 ± 0.65 µM
[2]
  IC50: 4.85 µM
[9]
  DNA damage (tail DNA), RPMI8226: comparable to that of melphalan
[4]; Homo sapiens, THP-1, 48 h
  IC50: 0.41 µM
[5]
  DNA damage (tail DNA), THP1: ~ 7%

## CCCN(C=NC(Cc1ccc(N(CCCl)CCCl)cc1)C(=O)OCC)CCC (centres unmarked) [EE-DIPR-MEL]
[8]
  late apoptotic cells, THP1: comparable to that of the unmodified drug
[1]; Homo sapiens, HL-60, 48 h
  IC50: 1.05 µM
[2]; Homo sapiens, RPMI-8226, 48 h
  IC50: 4.85 ± 0.195 µM
[2]
  IC50: 5.94 µM
[9]
  DNA damage (tail DNA), RPMI8226: comparable to that of melphalan
[4]; Homo sapiens, THP-1, 48 h
  IC50: 0.69 µM
[5]
  DNA damage (tail DNA), THP1: ~ 7%

## O=C(O)C(Cc1ccc(N(CCCl)CCCl)cc1)N=CN1CCOCC1 (centres unmarked) [MOR-MEL]
[1]; Homo sapiens, HL-60, 48 h
  IC50: > 30 µM
[2]; Homo sapiens, RPMI-8226, 48 h
  IC50: > 30 µM
[4]; Homo sapiens, THP-1, 48 h
  IC50: > 30 µM

## COC(=O)C(Cc1ccc(N(CCCl)CCCl)cc1)N=CN1CCOCC1 (centres unmarked) [EM-MOR-MEL]
[1]; Homo sapiens, HL-60, 48 h
  IC50: 0.49 ± 0.098 µM
[2]; Homo sapiens, RPMI-8226, 48 h
  IC50: 3.6 µM
[10]; PBMC, 48 h
  IC50: 6.41 ± 0.85 µM
[4]; Homo sapiens, THP-1, 48 h
  IC50: 0.07 ± 0.004 µM
[5]
  DNA damage (tail DNA), THP1: ~ 13%

## CCCN(C=NC(Cc1ccc(N(CCCl)CCCl)cc1)C(=O)O)CCC (centres unmarked) [DIPR-MEL]
[1]; Homo sapiens, HL-60, 48 h
  IC50: > 30 µM
[2]; Homo sapiens, RPMI-8226, 48 h
  IC50: > 30 µM
[4]; Homo sapiens, THP-1, 48 h
  IC50: > 30 µM

## CCOC(=O)C(N)Cc1ccc(N(CCCl)CCCl)cc1 (centres unmarked) [EE-MEL]
[11]
  Caspase 3 activity RPMI8226, 24 h: 656.19 ± 221.7%
[1]
  IC50: 0.7 µM
[2]
  IC50: 1.17 µM
[10]
  IC50: 2.2 ± 0.25 µM
[9]
  DNA damage (tail DNA), RPMI8226: ~ 38%
[3]
  Caspase 3 activity THP1, 24 h: 788.85 ± 83.40%
[4]
  IC50: 0.35 µM
[5]
  DNA damage (tail DNA), THP1: ~ 15%
[12]
  fold increase of intracellular calcium, HL60, 24 h: approx. 2 fold
[7]
  Caspase 3 activity HL-60, 24 h: 1225.64 ± 155.22%

## N[C@@H](Cc1ccc(N(CCCl)CCCl)cc1)C(=O)O [MEL, melphalan, reference compound]
[11]
  Caspase 3 activity RPMI8226, 24 h: 463.75 ± 64.5%
[8]
  late apoptotic cells, THP1: ~17%
[13]
  late apoptotic cells, RPMI8226: approximately 25%
[1]; Homo sapiens, HL-60, 48 h
  IC50: 3.78 µM
[2]; Homo sapiens, RPMI-8226, 48 h
  IC50: 8.9 µM
[14]
  Caspase 9 activity THP1, 24 h: 316.5 ± 17.31%
[3]
  Caspase 3 activity THP1, 24 h: 429.08 ± 48.10%
[15]
  late apoptotic cells, HL60: ~35%
[4]; Homo sapiens, THP-1, 48 h
  IC50: 6.26 µM
[6]; control = 100%
  level of intracellular calcium, THP1: 131.27 ± 10.08%
[7]
  Caspase 3 activity HL-60, 24 h: 736.92 ± 105.48%
